Test results taken from patent US12084430B2, “Tricyclic urea compounds as JAK2 V617F inhibitors” (Incyte Corporation, priority 2022, dated 2024).
Where two headings read alike, the source gives them in different places.

Key:
[1] = In vitro intrinsic clearance; type: in vitro ADME; conditions: human liver microsomes, 1 μM
Protocol: Example G. In Vitro Intrinsic Clearance Protocol
For in vitro metabolic stability experiments, test compounds were incubated with human liver microsomes at 37° C. The incubation mixture contained test compounds (1 μM), NADPH (2 mM), and human liver microsomes (0.5 mg protein/mL) in 100 mM phosphate buffer (pH 7.4). The mixture was pre-incubated for 2 min at 37° C. before the addition of NADPH. Reactions were commenced upon the addition of NADPH and quenched with ice-cold methanol at 0, 10, 20, and 30 min. Terminated incubation mixtures were analyzed using LC-MS/MS system. The analytical system consisted of a Shimadzu LC-30AD binary pump system and SIL-30AC autosampler (Shimadzu Scientific Instruments, Columbia, MD) coupled with a Sciex Triple Quad 6500+ mass spectrometer from Applied Biosystems (Foster City, CA). […] Mobile phase A consisted of 0.1% formic acid in water, and mobile phase B consisted of 0.1% formic acid in acetonitrile. The total LC-MS/MS runtime was 2.75 minutes with a flow rate of 0.75 mL/min. Peak area integrations and peak area ratio calculations were performed using Analyst software (version 1.6.3) from Applied Biosystems.
The in vitro intrinsic clearance, CLint, in vitro, was calculated from the t1/2 of test compound disappearance as CLint, in vitro=(0.693/t1/2)×(1/Cprotein), where Cprotein is the protein concentration during the incubation, and t1/2 was determined by the slope (k) of the log-linear regression analysis of the concentration versus time profiles; thus, t1/2=ln 2/k. The CLint, in vitro values were scaled to the in vivo values for human by using physiologically based scaling factors, hepatic microsomal protein concentrations (45 mg protein/g liver), and liver weights (21 g/kg body weight). The equation CLint=CLint, in vitro×(mg protein/g liver weight)×(g liver weight/kg body weight) was used. The in vivo hepatic clearance (CLH) was then calculated by using CLint and hepatic blood flow, Q (20 mL·min^−1·kg^−1 in humans) in the well-stirred liver model disregarding all binding from CLH=(Q×CLint)/(Q+CLint). The hepatic extraction ratio was calculated as CLH divided by Q.

TRKA [2] = test: TRKA enzymatic assay; type: biochemical
Protocol: (§1) Example I. TRKA Enzymatic Assay
(§2) The kinase assays were carried out at 24° C. temperature in assay buffer (HEPES 50 mM, pH 7.0, NaN3 0.02%, BSA 0.01%, Orthovanadate 0.1 mM, DTT 1 mM, MgCl2 10 mM) in a final volume of 10 μL. Testing compounds were prepared by serial dilution in DMSO and transferred to the plate wells by ECHO liquid handler (Labcyte) with 0.5% DMSO in the final assay. […]. Reactions were initiated by the addition of 5 μL ATP in assay buffer. The final 10 μL kinase reaction consists of 0.58 nM TRKA, 1 mM ATP, 500 nM TK Substrate-biotin and SEB reagent 62.5 nM in assay buffer. […] After 60 minutes incubation at room temperature, the product activity was determined by measuring the fluorescence at 620 nm and 665 nm on Pherastar microplate reader (BMG Labtech). A ratio is calculated (665/620 nm) for each well. Wells with DMSO only were served as the positive controls and wells containing no ATP were used as negative controls. IC50 determination was performed by fitting the curve of percent control activity versus the log of the compound concentration using the Gene data.

TRKA [3] = molecular target: TRKA (Homo sapiens, UniProt P04629); test: TRKA enzymatic assay; type: biochemical; conditions: 1 mM ATP
Protocol: as §1, §2

[4] = molecular target: T1, pseudo-kinase domain (JH2) of human V617F mutant JAK2 (Homo sapiens, UniProt O60674, F794H/V617F/W659A/W777A); test: JAK2 LanthaScreen JH2-V617F binding assay; conditions: read-out: JH2 V617F Bind IC50
T1 construct: pseudo-kinase domain (JH2, amino-acids 536-812 with 3 surface mutations W659A, W777A, F794H); His (C); purchased BPS Bioscience 79498; host or cells: baculovirus expression system
Protocol: Example B. JAK2 LanthaScreen JH2-V617F Binding Assay
JAK2 JH2-V617F binding assay utilizes pseudo-kinase domain (JH2, amino-acids 536-812 with 3 surface mutations W659A, W777A, F794H) of human V617F mutant JAK2 expressed as C-terminal His-Avi-tagged, biotinylated protein in a baculovirus expression system (BPS Bioscience, Catalog #79498). The assay was conducted in black 384-well polystyrene plates in a final reaction volume of 20 μL. JAK2 JH2-V617F (0.26 nM) was incubated with compounds (100 nL serially diluted in DMSO) in the presence of 50 nM Fluorescent JAK2-JH2 Tracer (MedChem Express Catalog #HY-102055) and 0.25 nM Streptavidin-Tb cryptate (Cisbio Part #610SATLB) in assay buffer (50 mM Tris, pH=7.5, 10 mM MgCl2, 0.01% Brij-35, 0.1% BSA, 1 mM EGTA, 5% Glycerol and 5 mM DTT). Non-specific binding was accessed in the presence of 2 mM ATP. After incubation for 1 hour at 25° C., LanthaScreen signals were read on a PHERAstar FS plate reader (BMG LABTECH). Data was analyzed with IDBS XLfit and GraphPad Prism 5.0 software using a four parameter dose response curve to determine IC50 for each compound.

KIT [5] = test: KIT enzymatic assay; type: biochemical
Protocol: (§3) Example D. KIT Enzymatic Assay
(§4) The kinase assays were carried out at room temperature in assay buffer (HEPES 50 mM, pH 7.0, NaN3 0.02%, BSA 0.01%, Orthovanadate 0.1 mM, DTT 1 mM, MgCl2 10 mM) in a final volume of 10 μL. Testing compounds were prepared by serial dilution in DMSO and transferred to the plate wells by ECHO liquid handler (Labcyte) with 0.5% DMSO in the final assay. […]. Reactions were initiated by the addition of 5 μL ATP in assay buffer. The final 10 μL kinase reaction consists of 0.12 nM KIT, 1 mM ATP, 500 nM TK Substrate-biotin and SEB reagent 62.5 nM in assay buffer. […] The plates were then sealed and centrifuged at 1800 rpm for 2 minutes. After 60 minutes incubation at room temperature, the product activity was determined by measuring the fluorescence at 620 nm and 665 nm on Pherastar microplate reader (BMG Labtech). A ratio is calculated (665/620 nm) for each well. Wells with DMSO only were served as the positive controls and wells containing no ATP were used as negative controls. IC50 determination was performed by fitting the curve of percent control activity versus the log of the compound concentration using the GraphPad Prism 7.0 software.

KIT [6] = molecular target: KIT (Homo sapiens, UniProt P10721); test: KIT enzymatic assay; type: biochemical; conditions: 1 mM ATP
Protocol: as §3, §4

T1 sequence (O60674 536-812 V617F/W659A/W777A/F794H): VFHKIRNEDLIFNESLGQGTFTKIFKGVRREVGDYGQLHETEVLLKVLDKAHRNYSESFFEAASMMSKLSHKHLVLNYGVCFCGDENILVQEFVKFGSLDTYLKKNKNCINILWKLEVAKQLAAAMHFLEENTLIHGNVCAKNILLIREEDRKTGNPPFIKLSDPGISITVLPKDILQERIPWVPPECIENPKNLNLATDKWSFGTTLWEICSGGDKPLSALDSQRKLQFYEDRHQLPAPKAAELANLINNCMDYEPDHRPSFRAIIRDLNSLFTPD
Sequence of KIT (Homo sapiens, UniProt P10721) (P10721 26-976, species assumed): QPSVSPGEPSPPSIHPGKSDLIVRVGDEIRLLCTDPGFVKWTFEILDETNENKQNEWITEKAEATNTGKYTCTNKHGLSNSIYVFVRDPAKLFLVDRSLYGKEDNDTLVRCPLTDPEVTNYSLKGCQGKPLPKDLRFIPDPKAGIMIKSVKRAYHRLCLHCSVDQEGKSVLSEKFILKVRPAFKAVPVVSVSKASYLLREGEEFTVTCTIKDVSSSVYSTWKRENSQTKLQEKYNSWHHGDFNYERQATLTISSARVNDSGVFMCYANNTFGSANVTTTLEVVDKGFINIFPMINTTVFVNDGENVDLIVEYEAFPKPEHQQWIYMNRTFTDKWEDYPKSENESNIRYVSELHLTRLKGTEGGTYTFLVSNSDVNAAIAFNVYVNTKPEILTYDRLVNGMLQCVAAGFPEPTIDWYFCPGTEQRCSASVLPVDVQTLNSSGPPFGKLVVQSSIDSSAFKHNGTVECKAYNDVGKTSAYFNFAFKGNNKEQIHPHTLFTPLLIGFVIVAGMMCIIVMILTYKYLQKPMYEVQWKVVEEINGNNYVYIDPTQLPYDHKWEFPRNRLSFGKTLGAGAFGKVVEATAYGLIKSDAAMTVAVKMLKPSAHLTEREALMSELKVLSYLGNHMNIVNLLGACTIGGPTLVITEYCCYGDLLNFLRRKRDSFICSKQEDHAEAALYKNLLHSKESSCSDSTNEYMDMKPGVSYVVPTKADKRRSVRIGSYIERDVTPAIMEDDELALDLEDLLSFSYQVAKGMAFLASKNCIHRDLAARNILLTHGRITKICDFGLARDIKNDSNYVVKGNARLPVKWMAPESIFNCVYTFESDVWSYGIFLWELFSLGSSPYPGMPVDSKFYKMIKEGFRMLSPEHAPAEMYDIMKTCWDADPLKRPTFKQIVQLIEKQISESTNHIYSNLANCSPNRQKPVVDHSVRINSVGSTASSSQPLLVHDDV
Sequence of TRKA (Homo sapiens, UniProt P04629) (P04629 33-796, species assumed): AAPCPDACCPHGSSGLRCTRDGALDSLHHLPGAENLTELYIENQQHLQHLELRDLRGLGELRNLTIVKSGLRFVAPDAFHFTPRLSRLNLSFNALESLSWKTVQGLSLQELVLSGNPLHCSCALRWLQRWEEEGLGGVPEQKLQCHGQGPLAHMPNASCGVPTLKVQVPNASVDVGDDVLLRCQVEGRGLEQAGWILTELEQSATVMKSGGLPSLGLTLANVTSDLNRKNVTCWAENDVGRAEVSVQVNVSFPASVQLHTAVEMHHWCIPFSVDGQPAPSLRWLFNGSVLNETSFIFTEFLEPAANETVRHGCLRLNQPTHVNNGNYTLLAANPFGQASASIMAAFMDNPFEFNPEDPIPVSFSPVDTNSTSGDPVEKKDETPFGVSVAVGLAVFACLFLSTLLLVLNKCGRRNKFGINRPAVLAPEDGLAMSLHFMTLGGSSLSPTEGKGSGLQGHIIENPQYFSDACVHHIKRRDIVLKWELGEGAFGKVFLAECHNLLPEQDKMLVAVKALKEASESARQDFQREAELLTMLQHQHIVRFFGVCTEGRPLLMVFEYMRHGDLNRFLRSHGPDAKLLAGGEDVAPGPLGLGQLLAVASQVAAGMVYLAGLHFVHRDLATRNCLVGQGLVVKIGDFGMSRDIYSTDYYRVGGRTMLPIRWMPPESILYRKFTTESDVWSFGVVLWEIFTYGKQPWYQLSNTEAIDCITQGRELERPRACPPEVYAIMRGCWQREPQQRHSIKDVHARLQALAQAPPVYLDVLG

Row | Compound | h-IntCL [1] | Selectivity TRKA/JH2 V617F (TRKA [2]) | IC50 (TRKA [3]) | IC50 ([4]; Table A) | IC50 ([4]; Table C) | Selectivity KIT/JH2 V617F (KIT [5]) | IC50 (KIT [6])
1 | [2H]C([2H])([2H])n1cc(-c2[nH]c3ncc4c(c3c2-c2ccc3c(cnn3CC(F)F)c2)n([C@@H]2CC[C@@H](NC(=O)OC)C2)c(=O)n4C)c(F)n1 [Example 18, Methyl ((1R,3R)-3-(8-(1-(2,2-difluoroethyl)-1H-indazol-5-yl)-7-(3-fluoro-1-(methyl-d3)-1H-pyrazol-4-yl)-3-methyl-2-oxo-3,6-dihydroimidazo[4,5-d]pyrrolo[2,3-b]pyridin-1(2H)-yl)cyclopentyl)carbamate] | ‡ ‡ (h-IntCL of ≥0.7 L/h/kg to ≤1 L/h/kg) | ****** (selectivity of >12500-fold) | > 2500 nM | ≤ 10 nM | ≤ 10 nM | ****** (selectivity of >12500-fold) | 1250 to 2500 nM
2 | [2H]C([2H])([2H])n1ncc2cc(-c3c(-c4cn(C)nc4OC)[nH]c4ncc5c(c34)n(C3CCOCC3)c(=O)n5C)ccc21 [B, reference compound] | ‡ ‡ (h-IntCL of ≥0.7 L/h/kg to ≤1 L/h/kg) | ** (selectivity of >500-fold to ≤1500-fold) | > 2500 nM |  |  | ** (selectivity of >500-fold to ≤1500-fold) | 
3 | [2H]C([2H])([2H])n1cc(-c2[nH]c3ncc4c(c3c2-c2ccc3c(c2)COC3(C)C)n([C@@H]2CC[C@@H](NC(=O)OC)C2)c(=O)n4C([2H])([2H])[2H])c(F)n1 [Example 8, Methyl ((1R,3R)-3-(8-(1,1-dimethyl-1,3-dihydroisobenzofuran-5-yl)-7-(3-fluoro-1-(methyl-d3)-1H-pyrazol-4-yl)-3-(methyl-d3)-2-oxo-3,6-dihydroimidazo[4,5-d]pyrrolo[2,3-b]pyridin-1(2H)-yl)cyclopentyl)carbamate] | ‡ (h-IntCL of <0.7 L/h/kg) | ****** (selectivity of >12500-fold) | > 2500 nM | ≤ 10 nM | ≤ 10 nM | ****** (selectivity of >12500-fold) | 1250 to 2500 nM
4 | [2H]C([2H])([2H])n1cc(-c2[nH]c3ncc4c(c3c2-c2ccc3c(cnn3C([2H])([2H])[2H])c2)n([C@@H]2CC[C@@H](NC(=O)OC)C2)c(=O)n4C([2H])([2H])[2H])c(F)n1 [Example 6, Methyl ((1R,3R)-3-(7-(3-fluoro-1-(methyl-d3)-1H-pyrazol-4-yl)-3-(methyl-d3)-8-(1-(methyl-d3)-1H-indazol-5-yl)-2-oxo-3,6-dihydroimidazo[4,5-d]pyrrolo[2,3-b]pyridin-1(2H)-yl)cyclopentyl)carbamate] | ‡ ‡ (h-IntCL of ≥0.7 L/h/kg to ≤1 L/h/kg) | ****** (selectivity of >12500-fold) | > 2500 nM | ≤ 10 nM | ≤ 10 nM | **** (selectivity of >1750-fold to ≤5000-fold) | 250 to 1250 nM
5 | [2H]C([2H])([2H])n1ncc2cc(-c3c(-c4cn(C([2H])([2H])C([2H])([2H])[2H])nc4F)[nH]c4ncc5c(c34)n([C@@H]3CC[C@@H](NC(=O)OC)C3)c(=O)n5C([2H])([2H])[2H])ccc21 [Example 15, Methyl ((1R,3R)-3-(7-(1-(ethyl-d5)-3-fluoro-1H-pyrazol-4-yl)-3-(methyl-d3)-8-(1-(methyl-d3)-1H-indazol-5-yl)-2-oxo-3,6-dihydroimidazo[4,5-d]pyrrolo[2,3-b]pyridin-1(2H)-yl)cyclopentyl)carbamate] | ‡ ‡ (h-IntCL of ≥0.7 L/h/kg to ≤1 L/h/kg) | ****** (selectivity of >12500-fold) | 1250 to 2500 nM | ≤ 10 nM | ≤ 10 nM | **** (selectivity of >1750-fold to ≤5000-fold) | 250 to 1250 nM
6 | COC(=O)N[C@@H]1CC[C@@H](n2c(=O)n(C)c3cnc4[nH]c(-c5cn(C)nc5OC)c(-c5ccc(F)cc5)c4c32)C1 [Example 1, Methyl ((1R,3R)-3-(8-(4-fluorophenyl)-7-(3-methoxy-1-methyl-1H-pyrazol-4-yl)-3-methyl-2-oxo-3,6-dihydroimidazo[4,5-d]pyrrolo[2,3-b]pyridin-1(2H)-yl)cyclopentyl)carbamate] | ‡ ‡ (h-IntCL of ≥0.7 L/h/kg to ≤1 L/h/kg) | ** (selectivity of >500-fold to ≤1500-fold) | 1250 to 2500 nM | ≤ 10 nM | ≤ 10 nM | ***** (selectivity of >5000-fold to ≤12500-fold) | > 2500 nM
7 | COc1nn(C)cc1-c1[nH]c2ncc3c(c2c1-c1ccc2c(cnn2C)c1)n(C1CCOCC1)c(=O)n3C [A, reference compound] | ‡ ‡ ‡ (h-IntCL of >1 L/h/kg) | ** (selectivity of >500-fold to ≤1500-fold) | 1250 to 2500 nM |  |  | * (selectivity of ≤500-fold) | 250 to 1250 nM
8 | COc1nn(C)cc1-c1[nH]c2ncc3c(c2c1-c1ccc2c(cnn2C)c1)n([C@H]1CC[C@@H](CC#N)CC1)c(=O)n3C [E, reference compound] | ‡ ‡ ‡ (h-IntCL of >1 L/h/kg) | ** (selectivity of >500-fold to ≤1500-fold) | 250 to 1250 nM |  |  | *** (selectivity of >1500-fold to ≤1750-fold) | 1250 to 2500 nM
